Where a name gives a salt, the structure may show the parent alone.

The test system of one test is hMDMs differentiated into M2 by IL-4 plus IL-13. Briefly: Reprogramming screen and dosage response on M2-like differentiated macrophages.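 Note: human monocyte-derived macrophages held 24 h in 5 ng/mL IL-4 plus IL-13 before 24 h compound exposure, with cell shape measured from images in 384-well plates.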 As to conditions: Homo sapiens, Macrophage, 24 h, read-out: EC.
Experimental: Shown are comparison of Z-scores between 5 μM or 10 μM of compounds. […] Shown are comparison of Z-scores between 5 μM or 10 μM of compounds. […] EC and fitness of 21 M1-polarizing (triangle) and 19 M2-polarizing compounds (circle) were calculated by the Michaelis-Menten equation and plotted. Data were summarized from 3 independent experiments.
(§1) Human macrophages were seeded into optical 384-well plates. Sixteen hours later, medium in M1 plates were replaced by M1 differentiating medium (complete RPMI with 50 ng/mL IFNγ and 50 ng/mL TNFα) and medium in M2 plates by M2 differentiating medium (complete RPMI with 5 ng/mL IL-4 and 5 ng/mL IL-13). After 24 hrs cell differentiation, M1 plates (M1 macrophages) and M2 plates (M2 macrophages) were treated with M2-activating compounds and M1-activating compounds respectively for 24 hrs. Two independent experiments were performed with or without replacing differentiating medium right before treatment. Cell imaging and analysis were performed as indicated above.
To investigate whether the identified compounds could reprogram or reactivate macrophages after M1- or M2-like differentiation, we rescreened the hits on M1- or M2-activated macrophages. hMDMs were activated into M2-like macrophages by IL-4 plus IL-13 or M1-like macrophages by IFNγ plus TNFα. After removing the differentiating cytokines, M2-like macrophages were treated with each of the 166 M1-activating compounds and M1-like macrophages were treated with each of the 180 M2-activating compounds at a final concentration of either 5 μM and 10 μM. 24 hours later, cell images were taken and cell shapes were quantified. […] Dosage responses were carried out with 40 commercial available compounds (21 M1-activating and 19 M2-activating) on polarized macrophages.
(§2) We also rescreened the hits on differentiated macrophages in the presence of differentiating cytokines: either IL-4 plus IL-13 or IFNγ plus TNFα.
For the compound `C[C@@]12C(=O)OC(=O)[C@]1(C)[C@H]1CC[C@@H]2O1` [Cantharidin], the EC (M1 Z-score cutoff) was 0.159 µM.

`COc1ccc(S(=O)(=O)N(C(C)=O)c2ccccc2/C=C/c2cc[n+]([O-])cc2)cc1` [HMN214]: the EC (M1 Z-score cutoff) was 1.48 µM.

For the compound `Cc1oc(=O)oc1CN1CCN(c2cc3c(cc2F)c(=O)c(C(=O)O)c2n3C(C)S2)CC1` (stereo not drawn) [Prulifloxacin], the EC (M1 Z-score cutoff) stood at 15 µM.

`CCCCC[C@H](O)/C=C/[C@H]1[C@H](O)CC(=O)[C@@H]1CCCCCCC(=O)O` [Alprostadil]: the EC (M1 Z-score cutoff) was determined as 0.0562 µM.

For the compound `O=C1c2c(O)ccc(O)c2C(=O)c2c(NCCNCCO)ccc(NCCNCCO)c21` [MITOXANTRONE HYDROCHLORIDE], the EC (M1 Z-score cutoff) was 0.559 µM.

For `O=C(Nc1ccc([N+](=O)[O-])cc1Cl)c1cc(Cl)ccc1O` [Niclosamide], the EC (M1 Z-score cutoff) stood at 1.13 µM.

As for `OC1(c2ccc(Cl)c(C(F)(F)F)c2)CCN(CCCC(c2ccc(F)cc2)c2ccc(F)cc2)CC1` [Penfluridol], the EC (M1 Z-score cutoff) amounted to 0.169 µM.

The same test, now with this note: M1-activating compounds on M2-like macrophages (IL-4 plus IL-13); EC = concentration reaching Z-score cutoff.
As for `CCC[C@H](NC(=O)/C(C#N)=C/c1cccc(Br)n1)c1ccccc1` [WP1130], the EC turned out to be 15 µM.

As to Evodiamine, the EC worked out at 0.6799 µM.

`CC(C)c1ccc(Cn2ccc3c4c(N)nc(NC5CC5)nc4ccc32)cc1.Cl.Cl` [SCH 79797 dihydrochloride]: the EC was 0.2194 µM.

Turning to `O=C1c2ccccc2-c2nc3nonc3nc21` [SMER3], the EC came to 0.09398 µM.

The same test, now with this note: differentiated macrophages.
On to `CCC[C@H](NC(=O)/C(C#N)=C/c1cccc(Br)n1)c1ccccc1` [WP1130], for which the Category result is recorded as “M1 (−4 for M1-activated macrophages)”.

Turning to `CC(C)c1ccc(Cn2ccc3c4c(N)nc(NC5CC5)nc4ccc32)cc1.Cl.Cl` [SCH 79797 dihydrochloride], the Category result is listed as “M1 (−4 for M1-activated macrophages)”.

`O=C1c2ccccc2-c2nc3nonc3nc21` [SMER3]: the Category result is recorded as “M1 (−4 for M1-activated macrophages)”.

A further test deals with human monocyte-derived macrophages (hMDMs). Briefly: High throughput phenotypic screen of macrophage activation (cell shape, Z-score).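 Note: phalloidin and DAPI stained hMDMs imaged by high-content microscopy, cell eccentricity compared with DMSO control by T-test, round morphology scored negative, elongated positive.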 Format: cell-based. To be noted: average cell-shape Z-score of the listed compounds whose targets fall in the Wiki pathway; hMDMs, 20 µM, 24 hours; M1-activating compounds (negative Z). Set-up: key to Average Z-value: Z-score vs DMSO; negative = round cells, positive = elongated.
Experimental: The Z-score was calculated by T-test to measure the difference of cell morphology between treatment and control. Stimuli had negative Z-scores when induced cells to round morphology and positive scores when induced cells to elongated morphology. […] Equally mixed human monocytes isolated from fresh blood of 4 healthy donors were cultured in vitro with 50 ng/mL M-CSF for 7 days. hMDMs were trypsinized and plated on 384-well plates (5000 cells/well in 50 μL). Cells were recovered in 10 ng/mL M-CSF for 16 hrs and then treated with compounds for 24 hrs. Cells were washed, fixed and stained with Phalloidin and DAPI. The plates were scanned with a high-content microscope with six-fields per well to quantify the cell number and cell morphology. […] The cell eccentricity was calculated to measure the cell morphology. The Z-score was calculated by T-test to measure the difference in cell morphologies between each compound and DMSO control.
Cells were treated with a library of over 4000 individual compounds or drugs at the final concentration of 20 μM using the CyBi-Well simultaneous pipettor (CyBio). […] After 24 hr incubation, supernatants were removed using the microplate washer (Bioteck) and cells were fixed by adding 50 μL 16% paraformaldehyde (Thermo Scientific) with the dispenser for 20 minutes. Cells were then washed with 50 μL 1×PBS twice and incubated for 20 minutes with NucBlue and AF746 Phalloidin (Invitrogen) to stain nucleus and cytoskeleton. Cells were then washed with 50 μL 1×PBS twice and maintained in PBS for the image acquirement. Plates were read in the Opera Phenix high content screening system (PerkinElmer) to photograph cells using 20× objective in 2 fluorescent channels (Blue and FarRed). A total of 6 different fields in each well and an average of 1,000 cells were imaged per well. CellProfiler was used to identify each cell by overlapping signals from its nucleus and cytoskeleton, and calculate the eccentricity as the parameter to measure the cell morphology. The Z-score was calculated by T-test to measure the difference of cell morphology between each treatment and control. For each row of the 384-well plate, total 4 wells with first and last two columns treated with the same concentration of DMSO were combined as the control for the other 20 treatment wells in that row. In the meantime, classic M1 and M2 stimuli were added to generate the gold-standard Z-score cutoffs with M1 or M2 activation. Classic M1 stimuli include LPS (100 ng/mL), IFNγ (50 ng/mL, Peprotech), TNFα (50 ng/mL, Peprotech), or IFNγ plus TNFα. Classic M2 stimuli include IL-10 (10 ng/mL, Peprotech), IL-4 (10 ng/mL, Peprotech), or IL-13 (5 ng/mL, Peprotech).
On to `O=C(c1ccc(Nc2nccc(-c3cc4ccccc4s3)n2)cc1)N1CCC(N2CCCC2)CC1` [IKK 16], for which the “Average Z-value” was −4.98.

In the case of `OCCN(CCO)c1nc(N2CCCCC2)c2nc(N(CCO)CCO)nc(N3CCCCC3)c2n1` [DIPYRIDAMOLE], the “Average Z-value” is −4.41.

The test is the same for the next values; noted with them: cell shape Z-score of hMDMs averaged over the compounds listed for the Wiki pathway; compounds at 20 µM for 24 hours; positive values = M2-like.
For the compound `Cc1onc(-c2ccccc2)c1-c1ccc(S(N)(=O)=O)cc1` [valdecoxib], the “Average Z-value” was 8.60.

Turning to `O=C1Cc2c([nH]c3ccc([N+](=O)[O-])cc23)-c2ccccc2N1` [Alsterpaullone], the “Average Z-value” was 12.55.

Take `O=C(O)c1nn(Cc2ccc(Cl)cc2Cl)c2ccccc12` [LONIDAMINE]: the “Average Z-value” was determined as 6.13.

With `CC1=C(/C=C/C(C)=C/C=C/C(C)=C/C(=O)O)C(C)(C)CCC1` [Retinoic acid], the “Average Z-value” was 6.86.

In the case of `CC[C@@H]1/C=C/C=C/C[C@H](C)[C@H](O)[C@](C)(O)C(=O)[C@H](C)[C@@H](O)[C@H](C)C(=O)[C@H](C)[C@@H](O)[C@H](C)/C=C/C(=O)O[C@H]2[C@@H](C)[C@@H](CC1)O[C@@]1(CC[C@@H](C)[C@@H](C[C@H](C)O)O1)[C@@H]2C` [oligomycin A], the “Average Z-value” stood at 7.16.

As for `Cl.Cl.O=S(=O)(NCCNC/C=C/c1ccc(Br)cc1)c1cccc2cnccc12` [H 89 dihydrochloride], the “Average Z-value” was found to be 7.14.

As to `COc1cc(C(=O)N2CCC(N3CCN(C)CC3)CC2)ccc1Nc1ncc2c(n1)N(C)c1ccccc1C(=O)N2C` [LRRK2-IN-1], the “Average Z-value” is recorded as 8.88.

Turning to `CC1(C)C(=O)C=C[C@]2(C)[C@H]3CC[C@@]4(C)[C@H](c5ccoc5)OC(=O)[C@H]5O[C@]54[C@]3(C)C=C[C@@H]12` [7-DESACETOXY-6,7-DEHYDROGEDUNIN], the “Average Z-value” stood at 7.92.

Regarding `c1cc(-c2cnn3cc(-c4ccc(OCCN5CCCCC5)cc4)cnc23)ccn1` [Dorsomorphin dihydrochloride], the “Average Z-value” amounted to 11.09.

In the case of (−)-Epigallocatechin Gallate, the “Average Z-value” was determined as 7.36.

As for `CN(C)CCC=C1c2ccccc2COc2ccccc21` [Doxepine HCl], the “Average Z-value” turned out to be 6.87.

On to `CCC[C@H](N[C@@H](C)C(=O)N1[C@H](C(=O)O)C[C@@H]2CCCC[C@@H]21)C(=O)OCC` [PERINDOPRIL ERBUMINE], for which the “Average Z-value” came out at 7.27.

The same test, now with this note: cell shape Z-score of hMDMs treated with compound at 20 µM for 24 hours; averaged over the compounds listed for the WikiPathways pathway; negative = M1-like, positive = M2-like.
As for `Cc1nc(Nc2[nH]nc3c2CN(C(=O)N[C@H](CN(C)C)c2ccccc2)C3(C)C)c2sccc2n1` [PF-3758309], the “Average Z-value” is on record as −4.29.

Turning to `Cc1ccc(O)c(N=Nc2ccccc2)n1` [SIB 1757], the “Average Z-value” is listed as −7.89.

In the case of `CC[C@@]1(O)C(=O)OCc2c1cc1n(c2=O)Cc2cc3c([N+](=O)[O-])cccc3nc2-1` [Rubitecan], the “Average Z-value” is given as −4.17.

In the case of `Cc1c[nH]c(-c2cnc(NCCNc3ccc(C#N)cn3)nc2-c2ccc(Cl)cc2Cl)n1` [CHIR-99021], the “Average Z-value” was −4.52.

Take YK 4-279: the “Average Z-value” is −7.60.

Regarding `OCCN(CCO)c1nc(N2CCCCC2)c2nc(N(CCO)CCO)nc(N3CCCCC3)c2n1` [DIPYRIDAMOLE], the “Average Z-value” was −4.41.

For `C=C1[C@@H](C)[C@H]2[C@H](Cc3ccccc3)NC(=O)[C@]23OC(=O)/C=C/[C@H](O)CCC[C@@H](C)C/C=C/[C@H]3[C@@H]1O` [cytochalasin B], the “Average Z-value” is reported as −20.00.

With `CCCS(=O)(=O)Nc1ccc(F)c(C(=O)c2c[nH]c3ncc(-c4ccc(Cl)cc4)cc23)c1F` [Vemurafenib], the “Average Z-value” is recorded as −8.55.

`O=C1Nc2ccccc2C2=NC(CN3CCN(c4ccccc4)CC3)CN12` (stereo not drawn): the “Average Z-value” is −9.21.

With `CCCCC[C@H](O)/C=C/[C@H]1[C@H](O)CC(=O)[C@@H]1CCCCCCC(=O)O` [Alprostadil], the “Average Z-value” is recorded as −4.86.

With `COc1cc2c(cc1OC)[C@@H]1C(=O)c3ccc4c(c3O[C@@H]1CO2)C[C@H](C(C)C)O4` [DIHYDROROTENONE], the “Average Z-value” is −5.14.

For `COc1c(C)c2c(c(O)c1C/C=C(\C)CCC(=O)O)C(=O)OC2` [Mycophenolic acid], the “Average Z-value” is on record as −4.54.

On to `CCOc1nc2cccc(C(=O)OC(C)OC(=O)OC3CCCCC3)c2n1Cc1ccc(-c2ccccc2-c2nn[nH]n2)cc1` (stereo not drawn) [CANDESARTAN CILEXTIL], for which the “Average Z-value” was −4.32.

The same test, now with this note: compounds regulating actin-cytoskeleton.
In the case of `CC[C@]1(O)C[C@@H]2CN(CCc3c([nH]c4ccccc34)[C@@](C(=O)OC)(c3cc4c(cc3OC)N(C)[C@H]3[C@@](O)(C(=O)OC)[C@H](OC(C)=O)[C@]5(CC)C=CCN6CC[C@]43[C@@H]65)C2)C1` [vinblastine sulfate], the “activation state induced in the screen” value was “M2-activating”.

Regarding `CCCCc1ccc2[nH]c(NC(=O)OC)nc2c1` [parbendazole], the “activation state induced in the screen” value is given as “M1-activating”.

Turning to `COc1cc2c(c(OC)c1OC)-c1ccc(OC)c(=O)cc1[C@@H](NC(C)=O)CC2` [colchicine], the “activation state induced in the screen” value is recorded as “M2-activating”.

On to `C=C1[C@@H](C)[C@H]2[C@H](Cc3ccccc3)NC(=O)[C@]23OC(=O)/C=C/[C@H](O)CCC[C@@H](C)C/C=C/[C@H]3[C@@H]1O` [cytochalasin-B], for which the “activation state induced in the screen” value is on record as “M1-activating”.

For the compound `COc1cc([C@@H]2c3cc4c(cc3[C@H](O)[C@H]3COC(=O)[C@H]23)OCO4)cc(OC)c1OC` [podofilox], the “activation state induced in the screen” value is “M2-activating”.

For `COC(=O)Nc1nc2ccc(SC(C)C)cc2[nH]1` [methiazole], the “activation state induced in the screen” value was “M1-activating”.

Still in this test, the particulars now being: known M1-/M2-activating stimuli.
As to IL13: classic M2 stimulus, the cell shape induced entry was “elongated cell shape”.

Turning to TNFα, the cell shape induced entry is listed as “round shape”.

Take lipopolysaccharide [LPS]: the cell shape induced result is recorded as “round shape”.

In another test the test system is hMDMs differentiated into M1 by IFNγ plus TNFα. Briefly: Reprogramming screen and dosage response on M1-like differentiated macrophages. Format: cell-based, human. As to conditions: Homo sapiens, Macrophage, 24 h; M2-activating compounds on M1-like macrophages (IFNγ plus TNFα); EC = concentration reaching Z-score cutoff.
Experimental: Data were summarized from 3 independent experiments.
as §1
To investigate whether the identified compounds could reprogram or reactivate macrophages after M1- or M2-like differentiation, we rescreened the hits on M1- or M2-activated macrophages. hMDMs were activated into M2-like macrophages by IL-4 plus IL-13 or M1-like macrophages by IFNγ plus TNFα. […] 24 hours later, cell images were taken and cell shapes were quantified.
as §2
Take `COc1cc2ncn(-c3cc(OCc4ccccc4C(F)(F)F)c(C(N)=O)s3)c2cc1OC` [GW-843682X]: the EC (M2 Z-score cutoff) was 0.897 µM.

`COc1cc(Nc2c(C#N)cnc3cc(OCCCN4CCN(C)CC4)c(OC)cc23)c(Cl)cc1Cl` [Bostunib]: the EC (M2 Z-score cutoff) amounted to 0.164 µM.

For `CC[C@H](C)C(=O)O[C@H]1C[C@@H](C)C=C2C=C[C@H](C)[C@H](CC[C@@H]3C[C@@H](O)CC(=O)O3)[C@H]21` [lovastatin], the EC (M2 Z-score cutoff) came to 0.442 µM.

With `CO[C@H]1C[C@H](O[C@@H]2/C(C)=C/C[C@@H]3C[C@@H](C[C@]4(CC[C@H](C)[C@@H](C5CCCCC5)O4)O3)OC(=O)[C@@H]3C=C(C)/C(=N/O)[C@H]4OC/C(=C\C=C\[C@@H]2C)[C@]43O)O[C@@H](C)[C@@H]1O` [SELAMECTIN], the EC (M2 Z-score cutoff) is 15 µM.

As for `Cc1nc(Nc2ncc(C(=O)Nc3c(C)cccc3Cl)s2)cc(N2CCN(CCO)CC2)n1` [Dasatinib], the EC (M2 Z-score cutoff) came to 0.762 µM.

`O=C(c1ccc(/C=C/c2n[nH]c3ccccc23)cc1)N1CCNCC1` [KW 2449]: the EC (M2 Z-score cutoff) was 2.16 µM.

`COCCNCc1ccc(-c2cc3nccc(Oc4ccc(NC(=S)NC(=O)Cc5ccc(F)cc5)cc4F)c3s2)nc1` [MGCD-265]: the EC (M2 Z-score cutoff) stood at 0.911 µM.

With `CNC(=O)c1cc(Oc2ccc(NC(=O)Nc3ccc(Cl)c(C(F)(F)F)c3)c(F)c2)ccn1` [Regorafenib], the EC (M2 Z-score cutoff) turned out to be 2.88 µM.

As for `CNC(=O)c1cc(Oc2ccc(NC(=O)Nc3ccc(Cl)c(C(F)(F)F)c3)cc2)ccn1` [Sorafenib], the EC (M2 Z-score cutoff) came out at 0.794 µM.

`CNC(=O)c1ccccc1Sc1ccc2c(/C=C/c3ccccn3)n[nH]c2c1` [Axitinib]: the EC (M2 Z-score cutoff) is 0.591 µM.

Still in this test, the particulars now being: M2-activating compounds on M1-like macrophages (IFNγ plus TNFα); EC = concentration reaching Z-score cutoff.
Turning to `CC(C)(C)n1nc(-c2cccc3ccccc23)c2c(N)ncnc21` [1-Naphthyl PP1], the EC (M2 Z-score cutoff) amounted to 2.072 µM.

`O=C1NC(=O)c2c1c1c3ccccc3[nH]c1c1[nH]c3ccccc3c21` [Arcyriaflavin A]: the EC (M2 Z-score cutoff) is listed as 1.342 µM.

Regarding JTE 013, the EC (M2 Z-score cutoff) worked out at 0.9381 µM.

Still in this test, the particulars now being: differentiated macrophages.
As for `CC(C)(C)n1nc(-c2cccc3ccccc23)c2c(N)ncnc21` [1-Naphthyl PP1], the Category result was “M2 (6 for M2-activated macrophages)”.

Take `O=C1NC(=O)c2c1c1c3ccccc3[nH]c1c1[nH]c3ccccc3c21` [Arcyriaflavin A]: the Category result is “M2 (6 for M2-activated macrophages)”.

As for JTE 013, the Category result was “M2 (6 for M2-activated macrophages)”.

These data come from patent US20250262167A1, “COMPOUNDS, TARGETS AND PATHWAYS FOR MACROPHAGE MODULATION” (Massachusetts Institute of Technology, priority 2020, published 2025).
